Measurements from patent US20230233576A1, “ECLITASERTIB FOR USE IN TREATING CONDITIONS INVOLVING SYSTEMIC HYPERINFLAMMATORY RESPONSE” (priority 2020, published 2023).

Tests used:
[1] = tested on: peripheral cytokine and biomarker levels; test: Phase 1b severe COVID-19 study: peripheral cytokine and biomarker levels; type: in vivo, human
Excerpt: The biomarker variables included pro-inflammatory cytokines (such as IL 4, IL-6, IL-10, IL-17, TNFα, and IFNγ) and RIPK1 PD cytokines/chemokines (such as MIP1α and MIP1β) that are elevated in participants with SARS-CoV-2.
The exploratory PD/biomarker endpoint was the change from baseline in peripheral cytokine and biomarker levels up to EOT.
Each analyte was selected, and the assay analytically validated based on reports in the literature and in-house research.

[2] = tested on: adult participants hospitalized for severe COVID-19; test: Phase 1b severe COVID-19 study: ECG abnormalities (PCSA); type: in vivo, human; conditions: for HR (bpm) Delta (change from baseline) / HR (bpm) Value / PR % change from baseline / PR (ms) Value / QRS % change from baseline / QRS (ms) Value / QT (ms) Delta (change from baseline) / QT (ms) Value / QTcB (ms) Delta (change from baseline) / QTcB (ms) Value / QTcF (ms) Delta (change from baseline) / QTcF (ms) Value: Discharge Before Day 15
Protocol: Physical examination including lung auscultation and assessment of consciousness, vital sign, electrocardiogram (ECG) parameters were measured per protocol.
For laboratory parameters (hematology, clinical chemistry, and urinalysis), vital signs, and ECG, incidences of potentially clinically significant abnormality (PCSA) values, actual values and change from baseline were summarized by treatment group.
For all laboratory, vital signs and ECG parameters, raw data and change from baseline were summarized in descriptive statistics by treatment group and scheduled time of measurement, with the exception of AST, ALT and alkaline phosphatase: instead of summarizing data in descriptive statistics, participants' profiles were presented through graphics by treatment group and with a color code to identify sites. The reason was that blood samples were processed by local laboratories with different normal ranges. For the rest of clinical laboratory these parameters it is reasonable to pool data as they are standard procedure and no significant differences in normal ranges were expected.

[3] = 600 mg, Day 7, LOCF, Safety population
[4] = 600 mg, Day 7, not statistically significant
[5] = Day 7 vs baseline, LOCF, Safety population
[6] = 600 mg (N = 47), TEAE period, safety population
[7] = individual participant 84.0 kg, 600 mg
[8] = individual participant 98.0 kg, 600 mg
[9] = individual participant 114.0 kg, 600 mg

CN1C(=O)[C@@H](NC(=O)c2nnc(Cc3ccccc3)[nH]2)COc2cccnc21 [RIPK1 Inhibitor, (S)-5-benzyl-N-(5-methyl-4-oxo-2,3,4,5-tetrahydropyrido[3,2-b][1,4]oxazepin-3-yl)-4H-1,2,4-triazole-3-carboxamide]
IL-6 fold change from baseline [1, 3]: 0.4 | IL-10 fold change from baseline [1, 3]: 0.48 | chemokine (C-X-C motif) Ligand 10 fold change from baseline [1, 3]: 0.26 | interferon gamma fold change from baseline [1, 3]: 0.44 | IL-6, ratio of relatives changes (RIPK1 Inhibitor versus placebo) [1, 4]: 0.63 | IL-10, ratio of relatives changes (RIPK1 Inhibitor versus placebo) [1, 4]: 0.82 | chemokine (C-X-C Motif) Ligand 10, ratio of relatives changes (RIPK1 Inhibitor versus placebo) [1, 4]: 0.7 | monocyte chemotactic protein 1, ratio of fold changes between RIPK1 Inhibitor and placebo [1, 4]: 0.85 | Chemokine (C-C Motif) Ligand 13 (pg/mL): RIPK1 Inhibitor 600 mg vs Placebo Fold-Change ([1]; Day 7, LOCF, Safety population): 1.15 (60) | Chemokine (C-X-C Motif) Ligand 10 (pg/mL): RIPK1 Inhibitor 600 mg vs Placebo Fold-Change ([1]; Day 7, LOCF, Safety population): 0.7 (56) | Eotaxin-1 (pg/mL): RIPK1 Inhibitor 600 mg vs Placebo Fold-Change ([1]; Day 7, LOCF, Safety population): 1.03 (65) | Interferon Gamma (pg/mL): RIPK1 Inhibitor 600 mg vs Placebo Fold-Change ([1]; Day 7, LOCF, Safety population): 1.03 (66) | Interleukin 6 (pg/mL): RIPK1 Inhibitor 600 mg vs Placebo Fold-Change ([1]; Day 7, LOCF, Safety population): 0.63 (66) | Interleukin 8 - Cytokines (pg/mL): RIPK1 Inhibitor 600 mg vs Placebo Fold-Change ([1]; Day 7, LOCF, Safety population): 0.8 (66) | Interleukin 10 (pg/mL): RIPK1 Inhibitor 600 mg vs Placebo Fold-Change ([1]; Day 7, LOCF, Safety population): 0.82 (66) | Macrophage Inflammatory Protein 1 Beta (pg/mL): RIPK1 Inhibitor 600 mg vs Placebo Fold-Change ([1]; Day 7, LOCF, Safety population): 0.85 (60) | Macrophage-Derived Chemokine (pg/mL): RIPK1 Inhibitor 600 mg vs Placebo Fold-Change ([1]; Day 7, LOCF, Safety population): 1.2 (60) | Monocyte Chemotactic Protein 1 (pg/mL): RIPK1 Inhibitor 600 mg vs Placebo Fold-Change ([1]; Day 7, LOCF, Safety population): 0.85 (60) | Ratio of Interleukin 6 and Interleukin 10 (RATIO): RIPK1 Inhibitor 600 mg vs Placebo Fold-Change ([1]; Day 7, LOCF, Safety population): 0.86 (66) | Tumor Necrosis Factor alpha (pg/mL): RIPK1 Inhibitor 600 mg vs Placebo Fold-Change ([1]; Day 7, LOCF, Safety population): 0.98 (66) | okine (C-C Motif) Ligand 17: RIPK1 Inhibitor 600 mg vs Placebo Fold-Change ([1]; Day 7, LOCF, Safety population): 1 (60) | Chemokine (C-C Motif) Ligand 13 (pg/mL): RIPK1 Inhibitor 600 mg Fold-Change [1, 5]: 1.31 (41) | Chemokine (C-X-C Motif) Ligand 10 (pg/mL): RIPK1 Inhibitor 600 mg Fold-Change [1, 5]: 0.26 (37) | Eotaxin-1 (pg/mL): RIPK1 Inhibitor 600 mg Fold-Change [1, 5]: 1.21 (45) | Interferon Gamma (pg/mL): RIPK1 Inhibitor 600 mg Fold-Change [1, 5]: 0.44 (47) | Interleukin 6 (pg/mL): RIPK1 Inhibitor 600 mg Fold-Change [1, 5]: 0.4 (47) | Interleukin 8 - Cytokines (pg/mL): RIPK1 Inhibitor 600 mg Fold-Change [1, 5]: 0.71 (47) | Interleukin 10 (pg/mL): RIPK1 Inhibitor 600 mg Fold-Change [1, 5]: 0.48 (47) | Macrophage Inflammatory Protein 1 Beta (pg/mL): RIPK1 Inhibitor 600 mg Fold-Change [1, 5]: 1.07 (41) | Macrophage-Derived Chemokine (pg/mL): RIPK1 Inhibitor 600 mg Fold-Change [1, 5]: 1.05 (41) | Monocyte Chemotactic Protein 1 (pg/mL): RIPK1 Inhibitor 600 mg Fold-Change [1, 5]: 0.69 (41) | Ratio of Interleukin 6 and Interleukin 10 (RATIO): RIPK1 Inhibitor 600 mg Fold-Change [1, 5]: 0.87 (47) | Tumor Necrosis Factor alpha (pg/mL): RIPK1 Inhibitor 600 mg Fold-Change [1, 5]: 0.85 (47) | okine (C-C Motif) Ligand 17: RIPK1 Inhibitor 600 mg Fold-Change [1, 5]: 1.56 (41) | ECG PCSA Heart Rate <40 beats/min [2, 6]: 0/44 | ECG PCSA Heart Rate <50 beats/min [2, 6]: 1/44 | ECG PCSA Heart Rate <50 beats/min and decrease from baseline ≥20 beats/min [2, 6]: 0/44 | ECG PCSA Heart Rate >100 beats/min [2, 6]: 3/44 | ECG PCSA Heart Rate >100 beats/min and increase from baseline ≥20 beats/min [2, 6]: 3/44 | ECG PCSA Heart Rate >120 beats/min [2, 6]: 1/44 | ECG PCSA Heart Rate >120 beats/min and increase from baseline 20 beats/min [2, 6]: 1/44 | ECG PCSA Heart rate>90 beats/min [2, 6]: 6/44 | ECG PCSA PR Interval >200 msec [2, 6]: 1/43 | ECG PCSA PR Interval >200 msec and increase from baseline ≥25% [2, 6]: 0/43 | ECG PCSA PR Interval >220 msec [2, 6]: 1/43 | ECG PCSA PR Interval >220 msec and increase from baseline ≥25% [2, 6]: 0/43 | ECG PCSA PR Interval >240 msec [2, 6]: 0/43 | ECG PCSA QRS Interval >110 msec [2, 6]: 6/44 | ECG PCSA QRS Interval >110 msec and increase from baseline ≥25% [2, 6]: 3/44 | ECG PCSA QRS Interval >120 msec [2, 6]: 3/44 | ECG PCSA QRS Interval >120 msec and increase from baseline ≥25% [2, 6]: 2/44 | ECG PCSA QT Interval >500 msec [2, 6]: 0/44 | ECG PCSA QTc Bazett - change from baseline: Increase from baseline >60 msec [2, 6]: 5/39 | ECG PCSA QTc Bazett - change from baseline: Increase from baseline ]30-60] msec [2, 6]: 2/39 | ECG PCSA QTc Bazett >450 msec [2, 6]: 5/44 | ECG PCSA QTc Bazett >500 msec [2, 6]: 3/44 | ECG PCSA QTc Bazett>480 msec [2, 6]: 3/44 | ECG PCSA QTc Fridericia - change from baseline: Increase from baseline >60 msec [2, 6]: 2/25 | ECG PCSA QTc Fridericia - change from baseline: Increase from baseline ]30-60] msec [2, 6]: 2/25 | ECG PCSA QTc Fridericia >450 msec [2, 6]: 1/29 | ECG PCSA QTc Fridericia >480 msec [2, 6]: 1/29 | ECG PCSA QTc Fridericia >500 msec [2, 6]: 0/29 | ECG PCSA heart rate>90 beats/min and increase from baseline≥20 beats/min [2, 6]: 5/44 | ECG PCSA Heart rate>90 beats/min ([2]; 600 mg, TEAE period): 6 participants | ECG PCSA QRS interval>110 ms ([2]; 600 mg, TEAE period): 6 participants | ECG PCSA QTc Bazett (QTcB)>450 ms ([2]; 600 mg, TEAE period): 5 participants | ECG PCSA QTc Bazett change from baseline>60 ms ([2]; 600 mg, TEAE period): 5 participants | ECG PCSA QTc Bazett>480 msec ([2]; 600 mg, TEAE period): 3 participants | ECG PCSA QTc Bazett>500 ms ([2]; 600 mg, TEAE period): 3 participants | ECG PCSA heart rate>90 beats/min and increase from baseline≥20 beats/min ([2]; 600 mg, TEAE period): 5 participants | HR (bpm) Delta (change from baseline) [2, 7]: −5 bpm | HR (bpm) Value [2, 7]: 73 bpm | PR % change from baseline [2, 7]: 0.0% | PR (ms) Value [2, 7]: 120 ms | QRS % change from baseline [2, 7]: 5.0% | QRS (ms) Value [2, 7]: 84 ms | QT (ms) Delta (change from baseline) [2, 7]: 0 ms | QT (ms) Value [2, 7]: 380 ms | QTcB (ms) Delta (change from baseline) [2, 7]: 69 ++ ms | QTcB (ms) Value [2, 7]: 449 ms | QTcF (ms) Delta (change from baseline) [2, 7]: -34 ms | QTcF (ms) Value [2, 7]: 380 ms | HR (bpm) Delta (change from baseline) [2, 8]: −1 bpm | HR (bpm) Value [2, 8]: 81 bpm | PR % change from baseline [2, 8]: 12.3% | PR (ms) Value [2, 8]: 164 ms | QRS % change from baseline [2, 8]: −14% | QRS (ms) Value [2, 8]: 95 ms | QT (ms) Delta (change from baseline) [2, 8]: -3 ms | QT (ms) Value [2, 8]: 371 ms | QTcB (ms) Delta (change from baseline) [2, 8]: 84 ++ ms | QTcB (ms) Value [2, 8]: 431 ms | QTcF (ms) Delta (change from baseline) [2, 8]: -5 ms | QTcF (ms) Value [2, 8]: 410 ms | HR (bpm) Delta (change from baseline) [2, 9]: 38 + bpm | HR (bpm) Value [2, 9]: 96 + bpm | PR % change from baseline [2, 9]: −11% | PR (ms) Value [2, 9]: 160 ms | QRS % change from baseline [2, 9]: −20% | QRS (ms) Value [2, 9]: 80 ms | QT (ms) Delta (change from baseline) [2, 9]: -30 ms | QT (ms) Value [2, 9]: 360 ms | QTcB (ms) Delta (change from baseline) [2, 9]: 72 ++ ms | QTcB (ms) Value [2, 9]: 455 + ms | QTcF (ms) Delta (change from baseline) [2, 9]: 36 + ms | QTcF (ms) Value [2, 9]: 421 ms
